# Laboratory results taken from patent US20230233569A1 (Revolution Medicines, Inc., priority 2020, published 2023).
# Legend:
# NCI-H358 (K-Ras G12C) = assay: CellTiter-Glo cell viability assay, 5-day treatment; assay type: cell-based; details: Homo sapiens, NCI-H358, 120 h, 5-day treatment; read-out: H358 Cell Viability assay data (K-Ras G12C, IC50)
# Method in brief: (§1)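 Viability is read as luminescence on day 5 after direct compound addition to plated cells, following about 30 minutes' room-temperature equilibration. Each signal is scaled to mean DMSO as 100%.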
# NRAS Q61K = NRAS Q61K (Homo sapiens, UniProt P01111+P62937, Q61K); assay: Disruption of BRAF RBD interaction with Ras (FRET / MOA assay, with Cyclophilin A); assay type: biochemical; details: NRAS Q61K; read-out: NRAS Q61K FRET data IC50
# Chain of NRAS Q61K (P01111 whole entry Q61K, the tested form may be a part): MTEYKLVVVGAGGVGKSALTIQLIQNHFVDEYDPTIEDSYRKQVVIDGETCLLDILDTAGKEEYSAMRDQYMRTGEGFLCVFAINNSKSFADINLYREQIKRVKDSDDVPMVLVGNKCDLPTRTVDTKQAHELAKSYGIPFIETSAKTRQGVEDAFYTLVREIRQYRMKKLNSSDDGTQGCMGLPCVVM
# Chain of NRAS Q61K (P62937 whole entry, the tested form may be a part): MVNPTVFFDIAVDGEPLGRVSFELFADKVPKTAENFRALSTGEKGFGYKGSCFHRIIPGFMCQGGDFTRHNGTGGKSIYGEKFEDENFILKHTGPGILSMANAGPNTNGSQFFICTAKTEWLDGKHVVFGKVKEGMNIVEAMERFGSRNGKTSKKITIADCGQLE
# Excerpt: (§2) Disruption of B-Raf Ras-Binding Domain (BRAF^RBD) Interaction with K-Ras by Compounds of the Invention (Also Called a FRET Assay or an MOA Assay)
# (§3) Note—The following protocol describes a procedure for monitoring disruption of K-Ras G12C (GMP-PNP) binding to BRAF^RBD by a compound of the invention. This protocol may also be executed substituting other Ras proteins or nucleotides.
# (§4) The purpose of this biochemical assay was to measure the ability of test compounds to facilitate ternary complex formation between a nucleotide-loaded K-Ras isoform and Cyclophilin A; the resulting ternary complex disrupts binding to a BRAF^RBD construct, inhibiting K-Ras signaling through a RAF effector. Data is reported as IC50 values.
# (§5) In assay buffer containing 25 mM HEPES pH 7.3, 0.002% Tween20, 0.1% BSA, 100 mM NaCl and 5 mM MgCl2, tagless Cyclophilin A, His6-K-Ras-GMPPNP, and GST-BRAF^RBD were combined in a 384-well assay plate at final concentrations of 25 μM, 12.5 nM and 50 nM, respectively. Compound was present in plate wells as a 10-point 3-fold dilution series starting at a final concentration of 30 μM. After incubation at 25° C. for 3 hours, a mixture of Anti-His Eu-W1024 and anti-GST allophycocyanin was then added to assay sample wells at final concentrations of 10 nM and 50 nM, respectively, and the reaction incubated for an additional 1.5 hours. […] Compounds that facilitate disruption of a K-Ras:RAF complex were identified as those eliciting a decrease in the TR-FRET ratio relative to DMSO control wells.
# as §4, with “BRAF^RBDD” for “BRAF^RBD”
# KRAS G12V [1] = molecular target: T1, KRAS G12V (Homo sapiens, UniProt P01116+P62937, G12V); assay: Ras-Raf disruption / FRET / MOA assay (BRAF RBD); assay type: biochemical; details: Ras-Raf disruption, with Cyclophilin A; read-out: KRAS G12V FRET data IC50
# T1 sequence (P01116 1-169 isoform P01116-2 G12V limits assumed): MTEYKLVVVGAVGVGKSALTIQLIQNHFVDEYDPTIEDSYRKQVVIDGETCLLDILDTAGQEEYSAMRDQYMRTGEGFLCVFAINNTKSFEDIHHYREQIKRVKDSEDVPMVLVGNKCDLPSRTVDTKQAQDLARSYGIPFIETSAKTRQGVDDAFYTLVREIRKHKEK
# T1 sequence (P62937 whole entry, the tested form may be a part): as the sequence (P62937 whole entry, the tested form may be a part) above
# Excerpt: Disruption of […] Ras-binding Domain (BRAF^RBD) Interaction with K-Ras by Compounds of the Invention (also Called a FRET Assay or an MOA Assay)
# Note—The following protocol describes a procedure for monitoring disruption of K-Ras G12C (GMP-PNP) binding to BRAF^RBD by a compound of the invention. This protocol may also be executed substituting other Ras proteins or nucleotides, such as K-Ras G12D and K-Ras G13D.
# as §4
# as §5, with “12.5 nM,” for “12.5 nM”, “of anti-His” for “of Anti-His”
# NRAS Q61R = NRAS Q61R (Homo sapiens, UniProt P01111+P62937, Q61R); assay: Disruption of BRAF RBD interaction with Ras (FRET / MOA assay, with Cyclophilin A); assay type: biochemical; details: NRAS Q61R; read-out: NRAS Q61R FRET data IC50
# Chain of NRAS Q61R (P01111 whole entry Q61R): as the sequence (P01111 whole entry Q61K, the tested form may be a part) above, with K61R counted along it
# Chain of NRAS Q61R (P62937 whole entry): as the sequence (P62937 whole entry, the tested form may be a part) above
# Excerpt: as §2, §3, §4, §5
# as §4, with “BRAF^RBDD” for “BRAF^RBD”
# Capan-1 (K-Ras G12V) = assay: CellTiter-Glo cell viability assay, 5-day treatment; assay type: cell-based; details: Homo sapiens, CAPAN-1, 120 h, 5-day treatment; read-out: Capan-1 Cell Viability assay data (K-Ras G12V, IC50)
# Method in brief: as §1
# KRAS G12C = KRAS G12C (Homo sapiens, UniProt P01116+P62937, G12C); assay: Disruption of BRAF RBD interaction with Ras (FRET / MOA assay, with Cyclophilin A); assay type: biochemical; details: read-out: KRAS G12C FRET data, IC50
# Chain of KRAS G12C (P01116 1-169 isoform P01116-2 G12C): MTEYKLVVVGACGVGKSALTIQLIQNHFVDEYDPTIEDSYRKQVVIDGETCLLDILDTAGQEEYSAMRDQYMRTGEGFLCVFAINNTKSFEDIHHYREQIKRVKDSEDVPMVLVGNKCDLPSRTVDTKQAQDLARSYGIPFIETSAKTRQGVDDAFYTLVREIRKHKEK
# Chain of KRAS G12C (P62937 whole entry): as the sequence (P62937 whole entry, the tested form may be a part) above
# Method in brief: (§6)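 TR-FRET: nucleotide-loaded K-Ras mutant or WT with Cyclophilin A and BRAF RBD, compound 10-point 3-fold from 30 μM final, 3 h at 25° C, then anti-His Eu (10 nM) and anti-GST APC (50 nM) for 1.5 h. Decreased FRET ratio versus DMSO gives IC50.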
# KRAS G12D = KRAS G12D (Homo sapiens, UniProt P01116+P62937, G12D); assay: as above; assay type: biochemical; details: read-out: KRAS G12D FRET data, IC50
# Chain of KRAS G12D (P01116 1-169 isoform P01116-2 G12D limits assumed): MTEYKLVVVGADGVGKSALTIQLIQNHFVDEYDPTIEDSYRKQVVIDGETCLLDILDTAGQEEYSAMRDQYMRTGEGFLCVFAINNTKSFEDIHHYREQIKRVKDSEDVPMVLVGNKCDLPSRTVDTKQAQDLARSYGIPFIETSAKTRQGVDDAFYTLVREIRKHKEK
# Chain of KRAS G12D (P62937 whole entry): as the sequence (P62937 whole entry, the tested form may be a part) above
# Method in brief: as §6
# KRAS G12S = KRAS G12S (Homo sapiens, UniProt P01116+P62937, G12S); assay: as above; assay type: biochemical; details: read-out: KRAS G12S FRET data, IC50
# Chain of KRAS G12S (P01116 1-169 isoform P01116-2 G12S limits assumed): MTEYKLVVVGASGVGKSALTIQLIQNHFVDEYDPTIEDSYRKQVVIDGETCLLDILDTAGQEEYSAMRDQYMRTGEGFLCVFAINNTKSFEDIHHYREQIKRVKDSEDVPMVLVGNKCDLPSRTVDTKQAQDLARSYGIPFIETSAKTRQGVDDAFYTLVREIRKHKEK
# Chain of KRAS G12S (P62937 whole entry): as the sequence (P62937 whole entry, the tested form may be a part) above
# Method in brief: as §6
# KRAS G12V [2] = molecular target: T1, KRAS G12V; assay: as above; assay type: biochemical; details: KRAS G12V; read-out: KRAS G12V FRET data IC50
# Method in brief: as §6
# KRAS G13C = KRAS G13C (Homo sapiens, UniProt P01116+P62937, G13C); assay: as above; assay type: biochemical; details: read-out: KRAS G13C FRET data, IC50
# Chain of KRAS G13C (P01116 1-169 isoform P01116-2 G13C): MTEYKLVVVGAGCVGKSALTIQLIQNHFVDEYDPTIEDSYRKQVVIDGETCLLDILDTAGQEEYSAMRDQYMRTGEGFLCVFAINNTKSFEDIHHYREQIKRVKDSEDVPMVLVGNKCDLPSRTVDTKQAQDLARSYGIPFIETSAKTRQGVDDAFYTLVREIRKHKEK
# Chain of KRAS G13C (P62937 whole entry): as the sequence (P62937 whole entry, the tested form may be a part) above
# Method in brief: as §6
# KRAS G13D = KRAS G13D (Homo sapiens, UniProt P01116+P62937, G13D); assay: as above; assay type: biochemical; details: KRAS G13D; read-out: KRAS G13D FRET data IC50
# Chain of KRAS G13D (P01116 1-169 isoform P01116-2 G13D limits assumed): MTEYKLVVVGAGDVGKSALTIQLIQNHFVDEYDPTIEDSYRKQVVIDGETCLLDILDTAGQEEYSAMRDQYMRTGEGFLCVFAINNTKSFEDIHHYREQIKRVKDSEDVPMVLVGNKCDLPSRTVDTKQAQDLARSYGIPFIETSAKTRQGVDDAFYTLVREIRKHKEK
# Chain of KRAS G13D (P62937 whole entry): as the sequence (P62937 whole entry, the tested form may be a part) above
# Method in brief: as §6
# KRAS WT = KRAS WT (Homo sapiens, UniProt P01116+P62937); assay: as above; assay type: biochemical; details: KRAS WT; read-out: KRAS WT FRET data IC50
# Chain of KRAS WT (P01116 1-169 isoform P01116-2 limits assumed): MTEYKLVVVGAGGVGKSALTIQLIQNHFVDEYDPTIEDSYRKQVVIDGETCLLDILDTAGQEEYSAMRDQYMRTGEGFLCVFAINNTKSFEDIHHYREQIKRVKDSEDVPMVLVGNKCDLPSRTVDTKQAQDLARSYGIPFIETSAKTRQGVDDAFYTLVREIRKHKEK
# Chain of KRAS WT (P62937 whole entry): as the sequence (P62937 whole entry, the tested form may be a part) above
# Method in brief: as §6
# NRAS G12C = NRAS G12C (Homo sapiens, UniProt P01111+P62937, G12C); assay: as above; assay type: biochemical; details: NRAS G12C; read-out: NRAS G12C FRET data IC50
# Chain of NRAS G12C (P01111 whole entry G12C): as the sequence (P01111 whole entry Q61K, the tested form may be a part) above, with G12C, K61Q counted along it
# Chain of NRAS G12C (P62937 whole entry): as the sequence (P62937 whole entry, the tested form may be a part) above
SMILES,IC50 (NCI-H358 (K-Ras G12C)),IC50 (NRAS Q61R),IC50 (Capan-1 (K-Ras G12V)),IC50 (KRAS G12C),IC50 (KRAS G12D),IC50 (KRAS G12S),IC50 (KRAS G12V [2]),IC50 (KRAS G13C),IC50 (KRAS G13D),IC50 (KRAS WT),IC50 (NRAS G12C),further results
"CCn1c(-c2cccnc2[C@H](C)OC)c2c3cc(ccc31)-c1csc(n1)C[C@H](NC(=O)[C@H](C(C)C)N(C)C(=O)N1CC(C(C)(C)O)C1)C(=O)N1CCC[C@H](N1)C(=O)OCC(C)(C)C2 (atropisomer, axis not shown) [Example A289]",< 10 nM,,,,,,,,,,,IC50 (NRAS Q61K): 10 to 100 nM
CCn1c(-c2cnccc2COC)c2c3cc(ccc31)-c1cccc(c1)C[C@H](NC(=O)[C@H](C(C)C)N(C)C(=O)CCCN=C=NCCCOC)C(=O)N1CCC[C@H](N1)C(=O)OCC(C)(C)C2 [69 A and B],,,,,,,,,,,,IC50 (KRAS G12V [1]): 1000 to 10000 nM
CCC[C@H]1CCN1C(=O)N[C@H]1Cc2nc(cs2)-c2ccc3c(c2)c(c(-c2cccnc2[C@H](C)OC)n3CC)CC(C)(C)COC(=O)[C@@H]2CCCN(N2)C1=O [Example A264],,100 to 1000 nM,,,,,,,,,,
CCn1c(-c2cccnc2[C@H](C)OC)c2c3cc(ccc31)-c1csc(n1)C[C@H](NC(=O)[C@H](C(C)C)N(C)C(=O)N1CCO[C@H](C)C1)C(=O)N1CCC[C@H](N1)C(=O)OCC(C)(C)C2 [Example A310],,10 to 100 nM,,,,,,,,,,
CCn1c(-c2cccnc2[C@H](C)OC)c2c3cc(ccc31)-c1csc(n1)C[C@H](NC(=O)[C@@H](OC(=O)N1CC(N(C)C)C1)C(C)C)C(=O)N1CCC[C@H](N1)C(=O)OCC(C)(C)C2 [Example A339],100 to 1000 nM,,1000 to 10000 nM,100 to 1000 nM,1000 to 10000 nM,1000 to 10000 nM,1000 to 10000 nM,1000 to 10000 nM,1000 to 10000 nM,100 to 1000 nM,100 to 1000 nM,
CCn1c(-c2cccnc2[C@H](C)OC)c2c3cc(ccc31)-c1csc(n1)C[C@H](NC(=O)[C@H](C(C)C)N(C)C(=O)N(C)C(C)C)C(=O)N1CCC[C@H](N1)C(=O)OCC(C)(C)C2 [Example A350],10 to 100 nM,,100 to 1000 nM,10 to 100 nM,100 to 1000 nM,100 to 1000 nM,100 to 1000 nM,100 to 1000 nM,100 to 1000 nM,100 to 1000 nM,10 to 100 nM,
